How the values were obtained:
[1] = molecular target: T1, Vasoactive intestinal polypeptide receptor 1 (Homo sapiens, UniProt P32241); assay type: cell membranes, Membrane; conditions: ht-29
T1 sequence (P32241 whole entry): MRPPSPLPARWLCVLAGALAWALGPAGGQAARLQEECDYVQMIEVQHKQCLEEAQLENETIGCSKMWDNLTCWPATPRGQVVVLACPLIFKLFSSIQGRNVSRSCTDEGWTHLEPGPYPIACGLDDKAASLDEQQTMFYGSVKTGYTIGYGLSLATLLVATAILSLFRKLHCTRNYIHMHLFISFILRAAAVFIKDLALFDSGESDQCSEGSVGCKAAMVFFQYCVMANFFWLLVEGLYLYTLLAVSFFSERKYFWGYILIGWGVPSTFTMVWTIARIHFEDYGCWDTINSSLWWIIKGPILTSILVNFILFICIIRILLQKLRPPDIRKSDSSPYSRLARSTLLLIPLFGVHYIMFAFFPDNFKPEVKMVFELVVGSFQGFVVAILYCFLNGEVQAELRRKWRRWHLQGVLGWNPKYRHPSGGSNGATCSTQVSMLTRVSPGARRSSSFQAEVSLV

[2] = molecular target: T2, Alpha-1D adrenergic receptor (Homo sapiens, UniProt P25100); assay type: cell membranes, HEK293, Membrane; conditions: hek293
T2 sequence (P25100 whole entry): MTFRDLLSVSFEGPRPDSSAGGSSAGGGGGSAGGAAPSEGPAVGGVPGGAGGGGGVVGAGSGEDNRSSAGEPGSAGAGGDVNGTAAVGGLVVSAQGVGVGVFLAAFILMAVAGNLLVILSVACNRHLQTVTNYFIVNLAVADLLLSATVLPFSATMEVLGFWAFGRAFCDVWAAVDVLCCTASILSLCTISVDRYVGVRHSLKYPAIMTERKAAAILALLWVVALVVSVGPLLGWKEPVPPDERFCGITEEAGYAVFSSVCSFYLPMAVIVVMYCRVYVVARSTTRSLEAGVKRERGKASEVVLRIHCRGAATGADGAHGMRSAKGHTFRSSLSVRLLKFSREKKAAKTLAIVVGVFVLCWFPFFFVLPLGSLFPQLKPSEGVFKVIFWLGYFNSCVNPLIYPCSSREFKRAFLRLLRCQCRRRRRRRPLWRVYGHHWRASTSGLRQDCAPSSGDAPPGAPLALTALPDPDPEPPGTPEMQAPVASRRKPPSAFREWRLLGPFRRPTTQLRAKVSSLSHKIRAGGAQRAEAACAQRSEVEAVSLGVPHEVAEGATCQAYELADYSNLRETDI

[3] = molecular target: T3, Muscarinic acetylcholine receptor M4 (Homo sapiens, UniProt P08173); assay type: cell membranes, CHO-K1, Membrane; conditions: cho-k1
T3 sequence (P08173 whole entry): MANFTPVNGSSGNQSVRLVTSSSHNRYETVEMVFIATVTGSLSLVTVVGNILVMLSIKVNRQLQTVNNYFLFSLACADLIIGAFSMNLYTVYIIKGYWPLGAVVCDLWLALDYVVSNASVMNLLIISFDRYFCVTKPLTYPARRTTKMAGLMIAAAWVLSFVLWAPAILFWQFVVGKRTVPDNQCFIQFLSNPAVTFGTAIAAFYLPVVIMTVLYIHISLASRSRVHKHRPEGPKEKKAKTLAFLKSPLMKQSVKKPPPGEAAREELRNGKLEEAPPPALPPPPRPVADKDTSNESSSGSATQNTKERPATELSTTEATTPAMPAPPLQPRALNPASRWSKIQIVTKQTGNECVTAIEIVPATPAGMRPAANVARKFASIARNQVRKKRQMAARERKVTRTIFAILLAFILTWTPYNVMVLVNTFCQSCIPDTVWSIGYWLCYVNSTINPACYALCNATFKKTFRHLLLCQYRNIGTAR

[4] = molecular target: T4, Receptor-type tyrosine-protein phosphatase C (Homo sapiens, UniProt P08575); design: species or system Escherichia coli;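 also: inhibition of CD45 enzyme activity measured using DiFMUP as substrate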
T4 sequence (P08575 whole entry): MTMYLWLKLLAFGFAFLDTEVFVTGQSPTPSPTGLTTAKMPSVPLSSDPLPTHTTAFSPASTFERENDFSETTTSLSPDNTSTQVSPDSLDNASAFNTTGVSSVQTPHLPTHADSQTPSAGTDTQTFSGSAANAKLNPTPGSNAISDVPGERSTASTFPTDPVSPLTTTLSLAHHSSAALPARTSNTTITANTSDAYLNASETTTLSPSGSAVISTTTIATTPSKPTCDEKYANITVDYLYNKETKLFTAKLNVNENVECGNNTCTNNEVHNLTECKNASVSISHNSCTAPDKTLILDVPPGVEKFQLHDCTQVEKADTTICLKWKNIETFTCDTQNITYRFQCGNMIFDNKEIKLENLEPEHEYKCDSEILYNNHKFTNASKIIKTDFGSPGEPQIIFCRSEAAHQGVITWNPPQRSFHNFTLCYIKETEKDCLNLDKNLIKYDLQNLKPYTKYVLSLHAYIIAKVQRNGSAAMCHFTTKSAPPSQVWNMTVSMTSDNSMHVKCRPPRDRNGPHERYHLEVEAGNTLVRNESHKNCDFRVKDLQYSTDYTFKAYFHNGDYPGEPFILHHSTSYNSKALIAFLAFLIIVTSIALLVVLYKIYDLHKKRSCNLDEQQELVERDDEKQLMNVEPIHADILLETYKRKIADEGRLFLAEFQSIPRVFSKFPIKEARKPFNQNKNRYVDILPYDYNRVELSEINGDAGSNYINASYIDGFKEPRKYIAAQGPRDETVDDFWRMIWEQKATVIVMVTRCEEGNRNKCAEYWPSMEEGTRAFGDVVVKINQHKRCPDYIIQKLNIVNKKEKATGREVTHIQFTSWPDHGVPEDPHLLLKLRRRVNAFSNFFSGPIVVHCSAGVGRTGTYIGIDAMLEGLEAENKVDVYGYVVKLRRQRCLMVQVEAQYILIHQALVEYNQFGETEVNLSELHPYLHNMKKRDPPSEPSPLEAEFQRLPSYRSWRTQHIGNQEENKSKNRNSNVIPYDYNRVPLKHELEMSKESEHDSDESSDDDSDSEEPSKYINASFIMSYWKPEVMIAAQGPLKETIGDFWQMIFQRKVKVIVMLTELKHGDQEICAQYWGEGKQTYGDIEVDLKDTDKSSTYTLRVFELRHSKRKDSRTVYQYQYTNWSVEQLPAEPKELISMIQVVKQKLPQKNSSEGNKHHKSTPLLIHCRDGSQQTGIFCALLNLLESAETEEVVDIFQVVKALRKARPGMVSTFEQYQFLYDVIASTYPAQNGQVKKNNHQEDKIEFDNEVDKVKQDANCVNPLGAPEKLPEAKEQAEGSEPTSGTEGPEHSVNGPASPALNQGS
Also: in other assays of this panel Not Active means under 50% inhibition at 10 µM.

COc1c(C)c2c(c(O)c1C/C=C(\C)CCC(=O)OCCN1CCOCC1)C(=O)OC2 [MYCOPHENOLATE MOFETIL]
Not Active: IC50 [1] | IC50 [2] | IC50 [3] | IC50 [4]

COC(=O)C1=C(C)NC(C)=C(C(=O)OC)C1c1ccccc1[N+](=O)[O-] [NIFEDIPINE]
Not Active: IC50 [1] | IC50 [2] | IC50 [3] | IC50 [4]

NNc1ccccc1 [PHENYLHYDRAZINE]
Not Active: IC50 [1] | IC50 [2] | IC50 [3] | IC50 [4]

CC(=O)[C@H]1CC[C@H]2[C@@H]3CCC4=CC(=O)CC[C@]4(C)[C@H]3CC[C@]12C [PROGESTERONE]
Not Active: IC50 [1] | IC50 [2] | IC50 [3] | IC50 [4]

NC(=O)c1ncn([C@@H]2O[C@H](CO)[C@@H](O)[C@H]2O)n1 [RIBAVIRIN]
Not Active: IC50 [1] | IC50 [2] | IC50 [3] | IC50 [4]

O=[N+]([O-])c1cc([As](=O)(O)O)ccc1O [ROXARSONE]
Not Active: IC50 [1] | Ki [1] | IC50 [2] | Ki [2] | IC50 [3] | Ki [3] | IC50 [4] | Ki [4]

CC[C@H]1OC(=O)[C@H](C)[C@@H](O[C@H]2C[C@@](C)(OC)[C@@H](O)[C@H](C)O2)[C@H](C)[C@@H](O[C@@H]2O[C@H](C)C[C@H](N(C)C)[C@H]2O)[C@](C)(O)C[C@@H](C)/C(=N\OCOCCOC)[C@H](C)[C@@H](O)[C@]1(C)O [ROXITHROMYCIN]
Not Active: IC50 [1] | IC50 [2] | IC50 [3] | IC50 [4]

NC(=O)c1ccccc1O [SALICYLAMIDE]
Not Active: IC50 [1] | IC50 [2] | IC50 [3] | IC50 [4]

Cc1ncc([N+](=O)[O-])n1CC(C)O (stereo not drawn) [SECNIDAZOLE]
Not Active: IC50 [1] | IC50 [2] | IC50 [3] | IC50 [4]

CN[C@@H]1[C@@H](O)[C@@H](O[C@@H]2[C@@H](O)[C@H](O[C@H]3OC(CN)=CC[C@H]3N)[C@@H](N)C[C@H]2N)OC[C@]1(C)O [SISOMICIN]
Not Active: IC50 [1] | IC50 [2] | IC50 [3] | IC50 [4]

CC(=O)S[C@@H]1CC2=CC(=O)CC[C@]2(C)[C@H]2CC[C@@]3(C)[C@@H](CC[C@@]34CCC(=O)O4)[C@H]12 [SPIRONOLACTONE]
Not Active: IC50 [1] | IC50 [2] | IC50 [3] | IC50 [4]

C[C@]12Cc3c[nH]nc3C[C@@H]1CC[C@@H]1[C@@H]2CC[C@@]2(C)[C@H]1CC[C@]2(C)O [STANOZOLOL]
Not Active: IC50 [1] | IC50 [2] | IC50 [3] | IC50 [4]

CN(N=O)C(=O)N[C@@H](C=O)[C@@H](O)[C@H](O)[C@H](O)CO [STREPTOZOCIN]
Not Active: IC50 [1] | IC50 [2] | IC50 [3] | IC50 [4]

Cc1cc(NS(=O)(=O)c2ccc(N)cc2)no1 [SULFAMETHOXAZOLE]
Not Active: IC50 [1] | IC50 [2] | IC50 [3] | IC50 [4]

Nc1ccc(S(N)(=O)=O)cc1 [SULFANILAMIDE]
Not Active: IC50 [1] | IC50 [2] | IC50 [3] | IC50 [4]

Nc1ccc(S(=O)(=O)Nc2ccnn2-c2ccccc2)cc1 [SULFAPHENAZOLE]
Not Active: IC50 [1] | IC50 [2] | IC50 [3] | IC50 [4]
